This is an account of results in the METLIN SMRT retention time set (Domingo-Almenara et al. 2019).

The structures appear in SMILES notation.

This series can be described thus: gradient 5% acetonitrile 3 min, to 50% in 2 min, to 85% in 15 min, held 3 min, 100 µL/min. Conditions: column: Zorbax Extend-C18 2.1 x 50 mm; eluents: water / acetonitrile, 0.1% formic acid. Put shortly: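 A Zorbax Extend-C18 column (2.1 × 50 mm, 1.8 μm) run at 100 μL/min with water and acetonitrile, both containing 0.1% formic acid, separated mixtures of ~100 pure standards. The HPLC was coupled to a quadrupole time-of-flight mass spectrometer operated in positive and negative ionization mode, with dead and dwell volumes of 40 μL and 900 μL. Each retention time was taken from a computationally picked adduct peak that was then manually inspected.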
As to `CCOc1ccc(NC(=O)c2cnc3c(c2)c(=O)n(C)c(=O)n3-c2ccccc2)cc1`, the RP-LC retention time was found to be 904 s.
For the compound `O=C(NCCCn1ncccc1=O)c1ccccc1C(F)(F)F`, the RP-LC retention time was 635 s.
`CC(C)(C)CC(=O)NC1CCN(c2ccc(F)cc2)C1=O` (stereo not given) registered an RP-LC retention time of 755 s.
Consider `Cc1nn(-c2ccc(Cl)cc2)c(C)c1S(=O)(=O)N1CCC(C(=O)NCC2CCCO2)CC1` (stereo not given), for which the RP-LC retention time stood at 843 s.
`CCCN1CCN(c2ccc(NC(=O)C3CCC3)c(C(=O)O)c2)CC1` registered an RP-LC retention time of 561 s.
Compound `Cc1ccc(CN2CCc3nc(N4CCCC4)ncc3C2)cc1C` displayed an RP-LC retention time of 640 s.
As to `Cc1c(C(=O)N2CCN(Cc3nc(C(C)(C)C)cs3)CC2)cccc1[N+](=O)[O-]`, the RP-LC retention time was found to be 740 s.
Turning to `CCn1cc(CCN2CCN(S(=O)(=O)c3ccc(F)cc3)CC2)c2cccnc21`, the RP-LC retention time stood at 638 s.
Regarding `COc1ccc(C(=O)NCc2c(C)noc2C)c(OC)c1`, the RP-LC retention time was 693 s.
Compound `CCCC(=O)N1CCN(c2nc3ccccc3nc2C(F)(F)F)CC1` yielded an RP-LC retention time of 1020 s.
On to `COc1cccc(CNC(=O)C2(C)CCCN(C(=O)Nc3ccc(Cl)cc3)C2)c1` (stereo not given), for which the RP-LC retention time worked out at 942 s.
Compound `O=C(Nc1nnc(CCS(=O)(=O)c2ccccc2)o1)C1COc2ccccc2O1` (stereo not given) returned an RP-LC retention time of 686 s.
On to `CCC(C)NC(=O)c1nc(CCS(=O)(=O)c2ccccc2)no1` (stereo not given), for which the RP-LC retention time was found to be 771 s.
`COc1cc2c(cc1OC)C(C(=O)N1CCC(C(N)=O)CC1)C(c1cccs1)N(C)C2=O` (stereo not given): the RP-LC retention time is 596 s.
Compound `COc1ccc2c(c1)C1(CCN(S(=O)(=O)c3cccs3)C1)C(=O)N2C` (stereo not given) displayed an RP-LC retention time of 871 s.
In turn, `Cc1nnc2cc(N3CCN(C(=O)Nc4cccc(Br)c4)CC3)cnn12` came in with an RP-LC retention time of 562 s.
`COc1ccc(-n2ccnc(NC(=O)Nc3ccc(C)c(C)c3)c2=O)cc1OC` yielded an RP-LC retention time of 955 s.
In turn, `COc1ccc(NC(=O)N2CC(c3nc(C(C)C)nn3C)C2)c(OC)c1` returned an RP-LC retention time of 667 s.
`CCc1noc(NC(C)=O)c1-c1ccc(C)c(S(=O)(=O)Nc2ccc(Cl)cc2F)c1`: the RP-LC retention time stood at 866 s.
Take `COc1ccc(-c2noc(-c3ccc(NC(=O)c4ccc(Br)o4)cc3)n2)cc1`: the RP-LC retention time was 1190 s.
`O=C(Cn1ccc2ccccc21)NCc1n[nH]c(=O)c2ccccc12` displayed an RP-LC retention time of 657 s.
As for `O=C(Nc1nccnc1C(=O)NCCN1CCOCC1)c1ccccc1`, the RP-LC retention time worked out at 569 s.
Then `Cc1ccc(NC(=O)N2CCC3(C2)C(=O)Nc2ccccc23)cc1` (stereo not given), with 745 s.
In turn, `Cc1ccccc1Nc1c(-c2ccc(N(C)C)cc2)nc2ncccn12` yielded an RP-LC retention time of 725 s.
With `COc1cc(OC)c(NC(=O)C2CCCN(c3ncnc4c3nc3n4CCCCC3)C2)cc1Cl` (stereo not given), the RP-LC retention time was 862 s.
The value for `O=S(=O)(Nc1ccc(F)c(F)c1)c1ccc2nncn2c1` was 694 s; that for `c1ccc2[nH]c(-c3ccncc3)nc2c1` was 624 s; that for `O=C(Nc1ccc2c(c1)OCCO2)c1cc2n(n1)CCCN(Cc1ccc(F)cc1)C2=O` was 863 s.
As to `O=C(NCc1ccc(F)c(Cl)c1)c1csc(C(=O)NC2CC2)n1`, the RP-LC retention time was 828 s.
In turn, `O=C(Cn1cnc2cc3c(cc21)OCCO3)Nc1ccc2c(c1)OCCO2` yielded an RP-LC retention time of 623 s.
`CCCCNC(=O)C1CCCN(c2nnc3ccc(Cl)cn23)C1` (stereo not given): the RP-LC retention time turned out to be 704 s.
The value for `Cc1cccc(NC(=O)N2CCCC2c2cc(C)no2)c1` (stereo not given) was 780 s.
Then `CCN(CC)C(=O)c1sc(-c2cn(C(C)C)c3ncccc23)nc1C`, with 902 s; and `Cc1ccc(-c2csc(NC(=O)Cc3csc(COc4ccc(Cl)c(C)c4)n3)n2)cc1`, with 1310 s.
The value for `Cc1onc(-c2cccc(Br)c2)c1C(=O)NCCCN1CCOCC1` was 629 s; that for `Nc1ccccc1-n1nc2ccc3ccccc3c2n1` was 1220 s; that for `Cc1ccc(NC(=O)Cn2cnc(C)c(C)c2=O)cc1F` was 630 s.
`Cc1cc2nc(C(F)(F)F)c(=O)n(C(C)C(=O)NCCN(C)C)c2cc1C` (stereo not given) yielded an RP-LC retention time of 695 s.
With `O=C(NC1CCCC1)c1cn(-c2ncccc2-c2nc(-c3ccccc3)no2)cn1`, the RP-LC retention time was found to be 867 s.
Regarding `CS(=O)(=O)N1CCCC(C(=O)Nc2nccs2)C1` (stereo not given), the RP-LC retention time amounted to 627 s.
As to `CC(C)OC(=O)Cn1c(C2CC(=O)N(Cc3ccccc3)C2)nc2ccccc21` (stereo not given), the RP-LC retention time was 799 s.
With `C=CCNC(=O)c1cn(-c2ncccc2-c2nc(C(C)(C)C)no2)cn1`, the RP-LC retention time is 776 s.
Then `CC(C)C(=O)Nc1ccc(CCc2nc3ccc(C(=O)NCc4ccco4)cc3[nH]2)cc1`, with 635 s; and `COc1ccc(NC(=O)N2CCCC2c2nc(-c3ccc(F)cc3F)no2)cc1F` (stereo not given), with 940 s; and `CN1C(=O)c2cccnc2Sc2cc(NC(=O)c3cccc(Br)c3)ccc21`, with 876 s.
Take `Cc1ccc(NC(=O)c2cn3c(n2)CCCC3)cc1C`: the RP-LC retention time is 604 s.
Consider `CCC(C)n1ncn(-c2ccc(N3CCN(c4ccc(OC[C@@H]5CO[C@@](Cn6cncn6)(c6ccc(Cl)cc6Cl)O5)cc4)CC3)cc2)c1=O` (stereo not given in full), for which the RP-LC retention time is 1060 s.
For the compound `O=c1n(Cc2ccc(F)cc2)nc2c(S(=O)(=O)N3CCN(c4ccc(F)cc4)CC3)cccn12`, the RP-LC retention time came out at 991 s.
The value for `Cc1cc(C)cc(-n2ccn(Cc3nc(-c4ccc(Cl)cc4)no3)c(=O)c2=O)c1` was 960 s; that for `CCOC(=O)c1cc2c([nH]c1=O)CC(c1cccc(Cl)c1)CC2=O` (stereo not given) was 770 s.
`COc1ccc(NC(=O)N2CC(N(C3CCOCC3)S(C)(=O)=O)C2)cc1OC` came in with an RP-LC retention time of 630 s.
In the case of `Cc1ccc(Cl)cc1N1C(=O)CN(S(C)(=O)=O)CC1(C)C(=O)NCc1ccccc1` (stereo not given), the RP-LC retention time amounted to 854 s.
`CCC(=O)NCc1nc2c(n1C)CN(S(=O)(=O)Cc1ccc(Cl)cc1)CC2` had an RP-LC retention time of 539 s.
`CCC(C)NC(=O)N1CCN(Cc2nc3cccnc3n2-c2cc(C)cc(C)c2)CC1` (stereo not given): the RP-LC retention time turned out to be 672 s.
In the case of `COc1cc(=O)n2c(c1C(=O)Nc1ccc(N(C)C)cc1)CCCC2`, the RP-LC retention time stood at 567 s.
`Cc1nc(C)c(C(=O)N2CCc3cc(-c4csc(C5CC5)n4)ccc32)s1` gave an RP-LC retention time of 1020 s.
The value for `CCCn1cc(CCNC(=O)Nc2cccc(Br)c2)c2cccnc21` was 865 s; that for `O=C(NC1CCN(Cc2ccccc2)CC1)C1CCCN(c2nnc(-n3cccc3)s2)C1` (stereo not given) was 659 s.
`CC1CCc2c(sc3ncnc(SCC(=O)N4CCOCC4)c23)C1` (stereo not given) came in with an RP-LC retention time of 860 s.
The compound `CC(C)n1c(=O)c(NCc2ccc(F)cc2Cl)nc2ccncc21` gave an RP-LC retention time of 686 s.
In the case of `Cc1cccc(C)c1NC(=O)N1CCC(c2cc(=O)n3nccc3n2C)CC1`, the RP-LC retention time is 635 s.
With `O=C(Cn1cccc(-c2nc(-c3ccc(F)cc3)no2)c1=O)Nc1cccc(Br)c1`, the RP-LC retention time was determined as 950 s.
Compound `CC(C)CC(NC(=O)c1cccs1)C(=O)Nc1nc2ccccc2[nH]1` (stereo not given) returned an RP-LC retention time of 703 s.
As to `CN(CC1(C)CCOCC1)C(=O)COc1ccccc1`, the RP-LC retention time came out at 742 s.
For the compound `O=C(CN1CCN(c2ccccn2)CC1)N1c2ccccc2CCc2ccccc21`, the RP-LC retention time worked out at 636 s.
For the compound `CN1C(=O)c2cccn2CC1CNC(=O)c1cccs1` (stereo not given), the RP-LC retention time came to 628 s.
The compound `CCn1cc(-c2nc(C(=O)Nc3cccc(OC)c3)cs2)c2cccnc21` came in with an RP-LC retention time of 1060 s.
`CCOc1ccc(-n2cc(C(=O)O)nn2)cc1` gave an RP-LC retention time of 686 s.
In turn, `CCOC(=O)c1ccccc1NC(=O)C1CCCN(c2cc(-n3cccn3)ncn2)C1` (stereo not given) displayed an RP-LC retention time of 1100 s.
The value for `Cc1ccc(-c2csc(-n3nc(C)c(CC(=O)Nc4ccc(C)cc4C)c3C)n2)cc1` was 1260 s.
Regarding `CC(=O)NCc1ccc(-c2noc(-c3cc(F)ccc3Cl)n2)s1`, the RP-LC retention time is 879 s.
The value for `CCNc1cc(N2CCCC(CCC(=O)NCc3ccccc3C)C2)ncn1` (stereo not given) was 672 s; that for `C=CCn1c(SCC(=O)NCC2CCCO2)nc2scc(-c3ccc(C)o3)c2c1=O` (stereo not given) was 895 s.
Consider `CC(C)CCN1CCC(N2CCN(S(=O)(=O)c3ccccc3F)CC2)C1=O` (stereo not given), for which the RP-LC retention time amounted to 662 s.
On to `Cc1ccc(NC(=O)C2CCc3nc(N4CCOCC4)ncc3C2)cc1Cl` (stereo not given), for which the RP-LC retention time turned out to be 880 s.
The compound `Cc1ncoc1C(=O)N1CC(Oc2ccc(-c3nc(-c4ccccc4)no3)cc2)C1` gave an RP-LC retention time of 1040 s.
Compound `Cc1nn(CC(=O)N2CCN(c3ccccn3)CC2)c(=O)c2nc(-c3ccccc3)sc12` registered an RP-LC retention time of 632 s.
`Cc1ccc(-c2nc3ncccn3c2Nc2ccc(C)c(Cl)c2)cc1` came in with an RP-LC retention time of 910 s.
Compound `CCCn1cnc2cc(-c3noc(COc4ccc(F)cc4)n3)ccc21` registered an RP-LC retention time of 787 s.
As for `Cn1ncc2c3ccccc3n(CC(=O)NCCCN3CCCCC3)c2c1=O`, the RP-LC retention time came to 580 s.
